From patent publication US4430435A (priority 1980, dated 1984)
Where “and” joins values, the source holds several entries; their conditions need not be identical. Identical values can stand only once.

Columns and labels:
[1] = system: β-Adrenergic Receptors; assay type: binding, rat
[2] = biological target: T1, calf caudate (Bos taurus, UniProt P20288); assay: Recovery of haloperidol added to drug-free serum, measured by the 3H-spiperone/calf caudate radioreceptor assay; assay type: binding; details: in the presence of TBEP
T1 construct: homogenised calf caudate (8 mg/ml); from tissue; host or cells: calf caudate, homogenised

[3] = biological target: T1, calf caudate; assay type: binding
[4] = Radioreceptor assay for tricyclic antidepressant drugs: binding of 3H-desipramine to talc in the presence of serum or buffer, with blocking agent

T1 sequence (P20288 whole entry): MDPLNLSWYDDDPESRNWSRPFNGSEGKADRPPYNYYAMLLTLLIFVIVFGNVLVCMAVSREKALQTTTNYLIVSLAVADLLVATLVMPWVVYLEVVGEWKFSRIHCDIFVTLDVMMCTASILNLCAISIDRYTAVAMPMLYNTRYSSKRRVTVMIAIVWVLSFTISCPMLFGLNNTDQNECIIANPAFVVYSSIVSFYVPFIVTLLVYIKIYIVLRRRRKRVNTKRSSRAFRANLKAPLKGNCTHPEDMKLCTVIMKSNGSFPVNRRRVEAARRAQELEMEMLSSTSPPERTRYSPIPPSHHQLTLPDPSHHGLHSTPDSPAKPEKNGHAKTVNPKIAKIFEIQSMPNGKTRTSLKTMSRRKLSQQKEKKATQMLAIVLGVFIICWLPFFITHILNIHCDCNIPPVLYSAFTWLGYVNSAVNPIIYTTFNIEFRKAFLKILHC

## CCCCOCCOP(=O)(OCCOCCCC)OCCOCCCC [TBEP, tris(butoxyethyl) phosphate]
[1]
  125I-HYP Bound (CPM) in Buffer: 8513 CPM and 8226 CPM and 8729 CPM and 8510 CPM and 8630 CPM and 8412 CPM
[2]
  variability (CV) in the recovery of added haloperidol: reduced
[3]
  % 3H-Spiperone Bound in Buffer: 35.0% and 35.3% and 35.6% and 32.5% and 32.4% and 31.6% and 27.7%
  % 3H-Spiperone Bound in Serum: 23.0% and 26.2% and 27.8% and 29.1% and 27.2% and 26.1% and 24.3%
  % of 3H-Spiperone Bound, TBEP present: 31.9% and 32.2% and 31.5% and 33.8% and 33.5% and 32.8% and 31.8%
  % of 3H-Spiperone Bound, TBEP present, mean (X): 32.4%
  between sample variability (CV) in 3H-spiperone binding: reduced

## CCOP(=O)(OCC)OCC [TEP, triethyl phosphate]
[1]
  125I-HYP Bound (CPM) in Buffer: 8367 CPM and 7988 CPM and 7972 CPM and 7931 CPM and 7613 CPM
  125I-HYP Bound (CPM) in Serum: 3812 CPM and 4131 CPM and 6011 CPM and 5903 CPM and 5881 CPM
  % Change in Buffer: -1% and -5% and -6% and -10%
[3]
  % 3H-Spiperone Bound in Buffer: 37.9% and 37.5% and 37.1% and 36.6% and 36.8% and 35.0%
  % 3H-Spiperone Bound in Serum: 27.8% and 28.6% and 29.1% and 30.1% and 30.6% and 29.8%
  % Change in Buffer: 0% and -1% and -2% and -3% and -7%
[4]; 50 μg/ml TEP
  3H-Desipramine Bound (CPM) in Buffer: 12093 CPM
  3H-Desipramine Bound (CPM) in Serum: 7740 CPM
  % Change in Buffer: -2%
  % Change in Serum: +10%
[4]; 100 μg/ml TEP
  3H-Desipramine Bound (CPM) in Buffer: 11748 CPM
  3H-Desipramine Bound (CPM) in Serum: 8276 CPM
  % Change in Buffer: -5%
  % Change in Serum: +18%
[4]; 500 μg/ml TEP
  3H-Desipramine Bound (CPM) in Buffer: 13024 CPM
  3H-Desipramine Bound (CPM) in Serum: 9204 CPM
  % Change in Buffer: +6%
  % Change in Serum: +31%
[4]; 750 μg/ml TEP
  3H-Desipramine Bound (CPM) in Buffer: 11507 CPM
  3H-Desipramine Bound (CPM) in Serum: 9198 CPM
  % Change in Buffer: -6%
  % Change in Serum: +30%
[4]; 1000 μg/ml TEP
  3H-Desipramine Bound (CPM) in Buffer: 11925 CPM
  3H-Desipramine Bound (CPM) in Serum: 9745 CPM
  % Change in Buffer: -3%
  % Change in Serum: +39%
[4]; 1250 μg/ml TEP
  3H-Desipramine Bound (CPM) in Buffer: 12362 CPM
  3H-Desipramine Bound (CPM) in Serum: 10016 CPM
  % Change in Buffer: 0%
  % Change in Serum: +43%
